Source: patent US9368421B2, “Under-fill material and method for producing semiconductor device” (NITTO DENKO CORPORATION, priority 2011, dated 2016)

Experiment: Acid dissociation constant pKa of flux agent
Conditions: for pKa: dilute aqueous solution; for pKa1: first dissociation constant of a dicarboxylic acid
Protocol: The pKa can be determined by measuring an acid dissociation constant Ka=[H3O][B^−]/[BH] under the condition of a dilute aqueous solution of the carboxyl group-containing compound and using the equation of pKa=−log Ka. Here, BH represents a carboxyl group-containing compound, and B^− represents a conjugate base of the carboxyl group-containing compound. The pKa can be measured in such a manner that a hydrogen ion concentration is measured using a pH meter, and the pKa is calculated from the concentration of a relevant substance and the hydrogen ion concentration.

`O=C(O)C1CCCCC1C(=O)O` (stereo not shown) showed a pKa of 4.4 and a pKa1 of 4.4.
`O=C(O)c1c(O)cccc1O` [2,6-dihydroxybenzoic acid] gave a pKa of 1.2.
`O=C(O)c1ccccc1[N+](=O)[O-]` [2-nitrobenzoic acid] gave a pKa of 2.5.
With `O=C(O)c1ccccc1-c1ccccc1` [2-phenylbenzoic acid] the pKa was 3.5.
`O=C(O)CCCCCCCCCCC(=O)O` [Dodecanedioic acid, dodecanedioic acid] gave a pKa of 5 and a pKa1 of 5.0.
With `O=C(O)CCCCCCC(=O)O` [Octanedioic acid, octanedioic acid] the pKa was 4.5 and the pKa1 was 4.5.
For `CN(C)c1ccc(C(=O)O)cc1` [p-dimethylaminobenzoic acid], the pKa was 4.9.
